Tests used:
[1] = Qualitative solubility screen of Compound 1 HCl; assay type: physicochemical
Experimental: The qualitative solubility screen was carried out to determine the range of solvents incorporated into future suspension equilibration panels.
Products that crystallized were centrifuged and analyzed as wet pellet by XRPD, dried under reduced pressure and re-analyzed by XRPD, with selected samples further analyzed by TGA and ^1H NMR spectroscopy.

[2] = Equilibrium humidity evaluation of crystalline compound 1 HCl Form A (95% RH/20° C.); assay type: physicochemical
Experimental: The stability of crystalline compound 1 HCl Form A was evaluated. Absorbent compound 1·Cl (Form A), (100 mg) was maintained, open-capped at 95% RH/20° C. and monitored at t=0, t=5 d and t=10 d, time points.
While absorbent Compound 1 HCl Form A), (100 mg) was placed open-capped inside double, cable-tied, electrostatic polythene bags (to mimic a typical packaging configuration) and placed inside the same humidity chamber at 95% RH at 20° C. and monitored at t=0, t=5 d and t=10 d time points. Stability of compound 1·HCl (Form A) at 40° C./75% RH was examined as part of the salt screen, and was stable over 10 d.

[3] = Heat-up/cool down (HUCD) crystallization of compound 1 Fumarate in different solvents
[4] = assay type: physicochemical
Experimental: Both samples were maintained at 75% RH at 40° C. and monitored by HPLC at time points t=1 h, 3 h, 24 h, 48 h, 7 d, 2 w, 3 w, 4 w and 5 w.
Under the conditions evaluated during this study, XRPD analysis could not be performed as compound 1 Fumarate turned to an oily residue within 3 h under both conditions.
[…] Both samples were maintained under equilibrium humidity of 75% RH at 40° C. and monitored, initially at hourly and then weekly time points.

[5] = Ethanol/Water (15% v/v, 0.5 aw), 5 vol
[6] = t = 10 d, open-capped vial inside double bags at 95% RH/20 (Table 111)
[7] = t = 10 d, open-capped vial inside double bags at 95% RH/20 (Table 112)

SMILES: COc1ccc2c(ccn2C[C@@H](C)N(C)C)c1.Cl [Compound 1 HCl]
- XRPD (dried pellet) ([1]; 2-Propanol): Form A
- XRPD (moist pellet) ([1]; 2-Propanol): Paste
- Solid on cooling? ([1]; 2-Propanol, 10 vol): ✓
- Solution at reflux ([1]; 2-Propanol, 10 vol): ✓
- Solution at reflux ([1]; 2-Propanol, 15 vol): ✓
- XRPD (dried pellet) ([1]; Acetone): Form A
- XRPD (moist pellet) ([1]; Acetone): Form A
- XRPD (moist pellet) ([1]; Acetone/Water (5% v/v, 0.5 aw)): Solution
- Solid on cooling ([1]; Acetone/Water (5% v/v, 0.5 aw), 5 vol): ✓
- Solution at reflux ([1]; Acetone/Water (5% v/v, 0.5 aw), 10 vol): ✓
- XRPD (dried pellet) ([1]; Chlorobenzene): Form A
- XRPD (moist pellet) ([1]; Chlorobenzene): Paste
- XRPD (moist pellet) ([1]; DCM): Form A
- XRPD (moist pellet) ([1]; EtOAc): Form A
- XRPD (dried pellet) ([1]; EtOH): Form A
- XRPD (moist pellet) ([1]; EtOH): Form A
- Solid on cooling ([1]; EtOH, 15 vol): ✓
- Solid on cooling ([1]; EtOH, 20 vol): ✓
- XRPD (moist pellet) ([1]; Ethanol/Water (15% v/v, 0.5 aw)): Solution
- Solid on cooling [1, 5]: ✓
- Solution at reflux [1, 5]: ✓
- Solution at 20° C. ([1]; Ethanol/Water (15% v/v, 0.5 aw), 10 vol): ✓
- XRPD (moist pellet) ([1]; Ethyl formate): Form A
- XRPD (moist pellet) ([1]; Heptane): Form A
- XRPD (moist pellet) ([1]; Isopropanol/Water (12%, v/v, 0.5 aw)): Solution
- Solid on cooling ([1]; Isopropanol/Water (12%, v/v, 0.5 aw), 5 vol): ✓
- Solution at reflux ([1]; Isopropanol/Water (12%, v/v, 0.5 aw), 10 vol): ✓
- XRPD (dried pellet) ([1]; MEK): Form A
- XRPD (moist pellet) ([1]; MEK): Paste
- XRPD (moist pellet) ([1]; MeCN): Form A
- Solid on cooling ([1]; MeCN, 15 vol): ✓
- Solid on cooling ([1]; MeCN, 20 vol): ✓
- XRPD (moist pellet) ([1]; MeOH): Solution
- Solution at reflux ([1]; MeOH, 10 vol): ✓
- XRPD (dried pellet) ([1]; MeTHF): Form A
- XRPD (moist pellet) ([1]; MeTHF): Paste
- XRPD (dried pellet) ([1]; Methyl acetate): Form A
- XRPD (moist pellet) ([1]; Methyl acetate): Paste
- XRPD (dried pellet) ([1]; Nitromethane): Form A
- XRPD (moist pellet) ([1]; Nitromethane): Paste
- Solid on cooling? ([1]; Nitromethane, 10 vol): ✓
- Solution at 40° C. ([1]; Nitromethane, 15 vol): ✓
- Solution at reflux ([1]; Nitromethane, 15 vol): ✓
- XRPD (moist pellet) ([1]; TBME): Form A
- XRPD (dried pellet) ([1]; Toluene): Form A
- XRPD (moist pellet) ([1]; Toluene): Paste
- XRPD (moist pellet) ([1]; Water): Solution
- Solution at 20° C. ([1]; Water, 5 vol): ✓
- Qualitative solubility ([1]; polar and aqueous solvents at temperature, panel of 22 solvents): soluble
- Qualitative solubility ([1]; polar solvents and solvents with high water activity): readily soluble
- HPLC purity data, peak RT 11.41, RRT 0.94 ([2]; t = 0, Table 111): 0.07
- HPLC purity data, peak RT 12.41, RRT 1.00 (main peak) ([2]; t = 0, Table 111): 99.65
- HPLC purity data, peak RT 14.32, RRT 1.18 ([2]; t = 0, Table 111): 0.03
- HPLC purity data, peak RT 15.05, RRT 1.24 ([2]; t = 0, Table 111): 0.05
- HPLC purity data, peak RT 15.41, RRT 1.27 ([2]; t = 0, Table 111): 0.07
- HPLC purity data, peak RT 15.78, RRT 1.30 ([2]; t = 0, Table 111): 0.04
- HPLC purity data, peak RT 16,50, RRT 1.36 ([2]; t = 0, Table 111): 0.08
- HPLC purity data, peak RT 11.41, RRT 0.94 ([2]; t = 0, Table 112): 0.07
- HPLC purity data, peak RT 12.01, RRT 0.99 ([2]; t = 0, Table 112): 0.02
- HPLC purity data, peak RT 12.14, RRT 1.00 (main peak) ([2]; t = 0, Table 112): 99.65
- HPLC purity data, peak RT 14.32, RRT 1.18 ([2]; t = 0, Table 112): 0.03
- HPLC purity data, peak RT 15.05, RRT 1.24 ([2]; t = 0, Table 112): 0.05
- HPLC purity data, peak RT 15.41, RRT 1.27 ([2]; t = 0, Table 112): 0.07
- HPLC purity data, peak RT 15.78, RRT 1.30 ([2]; t = 0, Table 112): 0.04
- HPLC purity data, peak RT 16.50, RRT 1.36 ([2]; t = 0, Table 112): 0.08
- HPLC purity data, peak RT 11.29, RRT 0.93 [2, 6]: 0.06
- HPLC purity data, peak RT 11.41, RRT 0.94 [2, 6]: 0.02
- HPLC purity data, peak RT 12.41, RRT 1.00 (main peak) [2, 6]: 99.79
- HPLC purity data, peak RT 14.32, RRT 1.18 [2, 6]: 0.03
- HPLC purity data, peak RT 15.05, RRT 1.24 [2, 6]: 0.04
- HPLC purity data, peak RT 15.41, RRT 1.27 [2, 6]: 0.02
- HPLC purity data, peak RT 11.41, RRT 0.94 [2, 7]: 0.06
- HPLC purity data, peak RT 12.01, RRT 0.99 [2, 7]: 0.02
- HPLC purity data, peak RT 12.14, RRT 1.00 (main peak) [2, 7]: 99.78
- HPLC purity data, peak RT 14.32, RRT 1.18 [2, 7]: 0.03
- HPLC purity data, peak RT 14.68, RRT 1.21 [2, 7]: 0.03
- HPLC purity data, peak RT 15.05, RRT 1.24 [2, 7]: 0.05
- HPLC purity data, peak RT 15.41, RRT 1.27 [2, 7]: 0.01
- HPLC purity data, peak RT 15.78, RRT 1.30 [2, 7]: 0.02

SMILES: COc1ccc2c(ccn2C[C@@H](C)[NH+](C)C)c1.O=C(O)/C=C/C(=O)O [Compound 1 fumarate, (R)-1-(5-methoxy-1H-indol-1-yl)-N,N-dimethylpropan-2-amine fumarate]
- Form XRPD (oven dried) ([3]; Heptane (5 vol) + Dichloromethane 160 μl): Pattern 1
- Form XRPD (oven dried) ([3]; Heptane (5 vol) + Dioxane 240 μl): Pattern 1
- Observations (t = 3 d @ 20° C.) ([3]; Heptane (5 vol) + Ethanol 180 μl): suspension
- Observations (t = 0 @ T = 20° C.) ([3]; Heptane (5 vol) + Methylethyl ketone 100 μl): suspension
- Form XRPD (oven dried) ([3]; Heptane (5 vol) + tert-Butylmethyl ether 300 μl): Pattern 1
- Observations (t = 3 d @ 20° C.) ([3]; Water (5 vol) + Ethanol 80 μl): solution
- Decrease of chemical purity ([4]; 75% RH/40° C., 5 week time point): approximately 2 % area
- Stability of the amorphous phase ([4]; 75% RH/40° C., 5 weeks): good stability
- Time to turn to an oily residue ([4]; 75% RH/40° C., both conditions (open vial and double bagged)): ≤ 3 h
- Preliminary stability evaluation (hydrate formation or degradation) ([4]; several weeks at 40° C./75% RH): no evidence for hydrate formation or degradation

— patent US12319652B2, “Salts and solid forms of (R)-1-(5-methoxy-1H-indol-1-yl)-N,N-dimethylpropan-2-amine” (priority 2021, dated 2025)
